Read-outs that look alike come from different tables or passages of the source.

Data set [1] has as its target T1, human Kv4.3/KChIP2.2 potassium channel (Homo sapiens, UniProt Q9UK17).
T1 construct: expressed in transfected cells
T1 sequence (Q9UK17 1-655): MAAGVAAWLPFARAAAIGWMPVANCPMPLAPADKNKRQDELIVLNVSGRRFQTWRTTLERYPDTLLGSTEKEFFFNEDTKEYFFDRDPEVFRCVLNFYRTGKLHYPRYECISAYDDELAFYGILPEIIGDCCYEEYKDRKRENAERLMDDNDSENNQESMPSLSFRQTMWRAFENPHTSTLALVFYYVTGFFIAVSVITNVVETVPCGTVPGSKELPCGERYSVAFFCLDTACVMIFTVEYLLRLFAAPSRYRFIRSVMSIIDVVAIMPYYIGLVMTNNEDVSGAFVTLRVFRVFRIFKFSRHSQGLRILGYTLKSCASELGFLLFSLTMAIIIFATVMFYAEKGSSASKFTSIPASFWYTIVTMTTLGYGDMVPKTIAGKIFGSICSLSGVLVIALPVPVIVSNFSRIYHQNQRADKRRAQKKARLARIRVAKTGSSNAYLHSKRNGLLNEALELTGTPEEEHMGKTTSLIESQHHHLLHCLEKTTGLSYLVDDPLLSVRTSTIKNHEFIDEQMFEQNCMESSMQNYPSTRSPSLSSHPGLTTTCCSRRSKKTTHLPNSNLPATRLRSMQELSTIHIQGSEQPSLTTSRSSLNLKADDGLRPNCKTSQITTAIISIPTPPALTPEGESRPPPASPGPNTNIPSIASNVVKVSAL
The data set can be described thus: Whole cell patch clamp, CHO-K1 cells stably expressing human Kv4.3/KChIP2.2. Format: cell-based. The settings on record: for remaining activity at 1 µM: CHO-K1. (In patch-clamp work, channel activity is measured electrically.)

The mark [2] stands for this setting: remaining current measured after application of the compound and relative to the blank, read-out: Kv4.3 charge in %.
[3] abbreviates: remaining peak height measured after application of the compound and relative to the blank, read-out: Kv4.3 peak in %.

`Cc1nc(Nc2cccc3ccccc23)sc1C(=O)N[C@H]1CCC[C@@H]1OCc1ccccc1` [Compound 93]: the melting point lay within 102.4 to 108.2 °C. The remaining activity at 1 µM in data set [1] (setting [2]) was 62%. For the same compound, the remaining activity at 1 µM in data set [1] (setting [3]) stood at 89%.
`Cc1nc(Nc2ccc(F)cc2)sc1C(=O)N[C@H](C)c1ccc2ccccc2c1` [Compound 16, 2-(4-fluoro-phenylamino)-4-methyl-thiazole-5-carboxylic acid (R)-1-(naphthalen-2-yl)ethyl amide]: the IC50 in data set [1] (estimated by Hill fit with hill=1, ymax=100, tested at 2 μM, n=2, read-out: IC50 (μM) Kv4.3) is 1.84 µM.
In turn, `Cc1nc(NC(=O)c2ccc(C(C)(C)C)cc2)sc1C(=O)N[C@H]1CCC[C@@H]1OCc1ccccc1` [Compound 180, 2-(4-tert-butyl-benzoylamino)-4-methyl-thiazole-5-carboxylic acid ((1S,2S)-2-benzyloxycyclopent-1-yl) amide] yielded a melting point of 88.7 to 90 °C. In data set [1] (setting [2]), the remaining activity at 1 µM was determined as 73%. In addition, the remaining activity at 1 µM in data set [1] (setting [3]) was 97%.
On the same counts, the results for `COc1ccccc1Nc1nc(C)c(C(=O)NCc2ccc(N(C)C)cc2)s1` [Compound 105, 2-(2-methoxy-phenylamino)-4-methyl-thiazole-5-carboxylic acid 4-dimethylamino-benzylamide] are 183.3 to 185.2 °C, 61% and 77%.
Compound `Cc1nc(Nc2ccc3occc3c2)sc1C(=O)N[C@H]1CCC[C@@H]1OCc1ccccc1` [Compound 126, 2-(benzofuran-5-ylamino)-4-methyl-thiazole-5-carboxylic acid ((1S,2S)-2-benzyloxycyclopent-1-yl) amide] returned a melting point of 164.4 to 169.3 °C. In data set [1] (setting [2]), the remaining activity at 1 µM stood at 58%. In addition, the remaining activity at 1 µM in data set [1] (setting [3]) stood at 89%.
The corresponding values for `COc1ccccc1Nc1nc(C)c(C(=O)NCc2ccc3c(c2)CCO3)s1` [Compound 104, 2-(2-methoxy-phenylamino)-4-methyl-thiazole-5-carboxylic acid (2,3-dihydro-benzofuran-5-ylmethyl)-amide] are 136.5 to 140.1 °C, 77% and 93%.
For the compound `COc1ccccc1Nc1nc(C)c(C(=O)NCc2c(C)cccc2Cl)s1` [Compound 98, 2-(2-methoxy-phenylamino)-4-methyl-thiazole-5-carboxylic acid 2-chloro-6-methyl-benzylamide], the melting point lay within 105.4 to 107.6 °C. In addition, the remaining activity at 1 µM in data set [1] (setting [2]) was determined as 59%. In addition, the remaining activity at 1 µM in data set [1] (setting [3]) was determined as 90%.
In the case of `COc1ccccc1Nc1nc(C)c(C(=O)NCc2ccccc2SC)s1` [Compound 97], the melting point was determined as 66.5 °C. The remaining activity at 1 µM in data set [1] (setting [2]) came to 66%. In addition, in data set [1] (setting [3]), the remaining activity at 1 µM worked out at 96%.
`COc1ccccc1Nc1ccc(C(=O)N[C@H]2CCC[C@@H]2OCc2ccccc2)s1` [Compound 75, 2-(2-methoxy-phenylamino)-thiophene-5-carboxylic acid ((1S,2S)-2-benzyloxycyclopent-1-yl) amide] registered a melting point of 69.7 to 71.6 °C. Also, the remaining activity at 1 µM in data set [1] (setting [2]) amounted to 41%. In addition, the remaining activity at 1 µM in data set [1] (setting [3]) turned out to be 81%.
Consider `Cc1nc(Nc2cccc3cccnc23)sc1C(=O)N[C@H]1CCC[C@@H]1OCc1ccccc1` [Compound 94, 4-methyl-2-(quinolin-8-ylamino)-thiazole-5-carboxylic acid ((1S,2S)-2-benzyloxycyclopent-1-yl) amide], for which the remaining activity at 1 µM in data set [1] (setting [2]) came to 49%; in data set [1] (setting [3]), 89%.
On to `Cc1nc(Nc2ccc3c(c2)OCCO3)sc1C(=O)N[C@H]1CCC[C@@H]1OCc1ccccc1` [Compound 95], for which the melting point lay in the range of 178 to 180.1 °C. Besides, the remaining activity at 1 µM in data set [1] (setting [2]) came to 61%. Moreover, in data set [1] (setting [3]), the remaining activity at 1 µM was determined as 91%.

By melting point is commonly meant the temperature, or range, at which the solid turns liquid. As usually defined, the IC50 is the concentration that inhibits the measured activity by half.

Values taken from patent US20080125432A1 (Devgen NV, priority 2004, published 2008).
